Data set [1] concerns Botryotinia fuckeliana (Botrytis cinerea). Put plainly: Botryotinia fuckeliana (Botrytis cinerea)/liquid culture (Gray mould). The note with it: liquid culture, growth inhibition photometrically 3-4 days after application, compared to untreated control. It counts as cell-based.
In data set [2] the test system is Glomerella lagenarium (Colletotrichum lagenarium). Kind of data set: Glomerella lagenarium (Colletotrichum lagenarium)/liquid culture (Anthracnose). It counts as cell-based. As to conditions: Colletotrichum orbiculare, 72 h, liquid culture, growth inhibition photometrically 3-4 days after application, compared to untreated control.
For the next data set, the system named is Fusarium culmorum. Put plainly: microbe, parasite or virus in culture. The note with it: read-out: control of Fusarium culmorum. It counts as cell-based.
The test system of data set [3] is Magnaporthe grisea (Pyricularia oryzae). Put plainly: microbe, parasite or virus in culture. It counts as cell-based. The note with it: read-out: control of Magnaporthe grisea.

On to `C=CCC(C)(CC(C)C)C(=O)Nc1cnc2c(F)cccc2c1` (centres unmarked) [Compound E7], for which the inhibition of growth at 20 ppm (in data set [1]; in data set [2]; in the data set with Fusarium culmorum; in data set [3]) was ≥ 80% each time.

Consider `C/C=C(\C)CC(C)(CC(C)C)C(=O)Nc1cnc2c(F)cccc2c1` (centres unmarked) [Compound E2], for which the melting point lay within 135 to 137 °C. Besides, in data set [1], the inhibition of growth at 20 ppm is ≥ 80%. For the same molecule, the inhibition of growth at 20 ppm in data set [2] was ≥ 80%. In addition, the inhibition of growth at 20 ppm in the data set on Fusarium culmorum is ≥ 80%. Further, the inhibition of growth at 20 ppm in data set [3] was ≥ 80%.

The molecule `CC(CC1CCCCC1)C(=O)Nc1cnc2c(F)cccc2c1` (centres unmarked) [Compound E11] came in with a melting point of 179 to 181 °C. Also, in data set [1], the inhibition of growth at 20 ppm is ≥ 80%. Moreover, the inhibition of growth at 20 ppm in data set [2] is ≥ 80%. Also, the inhibition of growth at 20 ppm in the data set on Fusarium culmorum is ≥ 80%. Further, the inhibition of growth at 20 ppm in data set [3] was ≥ 80%.

In turn, `CC1(CC(C)(CC(F)(F)F)C(=O)Nc2cnc3c(F)cccc3c2)CC1` (centres unmarked) [Compound E1, 4,4,4-trifluoro-N-(8-fluoro-3-quinolyl)-2-methyl-2-[(1-methylcyclopropyl)methyl]butanamide] yielded a melting point of 60 to 70 °C. In addition, the inhibition of growth at 20 ppm in data set [1] is ≥ 80%. Further, the inhibition of growth at 20 ppm in data set [2] is ≥ 80%. Moreover, in the data set with Fusarium culmorum, the inhibition of growth at 20 ppm is ≥ 80%. For the same molecule, in data set [3], the inhibition of growth at 20 ppm was ≥ 80%.

With `CC(C)CC(C)(CC1CC1)C(=O)Nc1cnc2c(F)cccc2c1` (centres unmarked) [Compound E5], the inhibition of growth at 20 ppm (in data set [1]; in data set [2]; with Fusarium culmorum; in data set [3]) was ≥ 80% in each case.

The molecule `CC(C)=C(F)CC(CC(C)C)C(=O)Nc1cnc2c(F)cccc2c1` (centres unmarked) [Compound E10] yielded a melting point of 103 to 105 °C. In addition, the inhibition of growth at 20 ppm in data set [1] was ≥ 80%. Moreover, the inhibition of growth at 20 ppm in data set [2] is ≥ 80%. For the same molecule, in the data set on Fusarium culmorum, the inhibition of growth at 20 ppm is ≥ 80%. In addition, the inhibition of growth at 20 ppm in data set [3] was ≥ 80%.

For the molecule `Cc1c(NC(=O)C(C)CC(C)C)cnc2c(F)cccc12` (centres unmarked) [Compound E13], the inhibition of growth at 20 ppm (in data set [1]; in data set [2]; in the data set on Fusarium culmorum) was ≥ 80% throughout.

For the molecule `C=C(C)CC(C)C(=O)Nc1cnc2c(F)cccc2c1` (centres unmarked) [Compound E9], the inhibition of growth at 20 ppm (in data set [1]; in data set [2]; with Fusarium culmorum) was ≥ 80% in each case.

For the molecule `CC(C)CC(C#N)(CC(C)C)C(=O)Nc1cnc2c(F)cccc2c1` [Compound E6], the inhibition of growth at 20 ppm (in data set [1]; in data set [2]; with Fusarium culmorum; in data set [3]) was ≥ 80% throughout.

As for `CC(CC(F)(F)F)C(=O)Nc1cnc2c(F)cccc2c1` (centres unmarked) [Compound E14], the inhibition of growth at 20 ppm (in data set [1]; in data set [2]; with Fusarium culmorum) was ≥ 80% in each case.

Regarding `CC(C)=C(C)CC(C)(CC(C)C)C(=O)Nc1cnc2c(F)cccc2c1` (centres unmarked) [Compound E3], the inhibition of growth at 20 ppm (in data set [1]; in data set [2]; in the data set on Fusarium culmorum; in data set [3]) was ≥ 80% throughout.

As to `C=C(Cl)CC(C)(CC1CCCCC1)C(=O)Nc1cnc2c(F)cccc2c1` (centres unmarked) [Compound E12], the inhibition of growth at 20 ppm (in data set [1]; in data set [2]; in the data set with Fusarium culmorum; in data set [3]) was ≥ 80% in each case.

For `CC(C)=C(F)CC(C)(CC(C)C)C(=O)Nc1cnc2ccccc2c1` (centres unmarked) [Compound E4], the inhibition of growth at 20 ppm (in data set [1]; in data set [2]; in the data set on Fusarium culmorum; in data set [3]) was ≥ 80% throughout.

The values above are taken from patent US11129386B2, “Microbiocidal quinoline (thio)carboxamide derivatives” (SYNGENTA PARTICIPATIONS AG, priority 2017, dated 2021).
